Test results: US20040096498A1, “Oral pharmaceutical delivery system with improved sustained release” (priority 2002, published 2004)

Assay: Single oral dose pharmacokinetic study in dogs, varying the testosterone dose (Example 1)
Assay type: in vivo, dogs (female beagles)
Details: for Average Serum Testosterone / concentration at 0.5 h / concentration at 1 h / concentration at 2 h / concentration at 4 h / concentration at 5 h / concentration at 6 h / concentration at 8 h / concentration at 24 h: single oral; for Average Serum Testosterone: time 0 h (pre-dose); for Sustained release time, Lipid Suspension Time: time serum levels fell between about 300 and 1100 ng/dl; for concentration at 0.5 h / concentration at 1 h / concentration at 2 h / concentration at 4 h / concentration at 5 h / concentration at 6 h / concentration at 8 h / concentration at 24 h: female, beagle, dog, serum
Description: A study using six dogs (female beagles) was made to obtain preliminary pharmacokinetic data following a single oral dose of the delivery system. The dogs were 13-24 months old, and weighed in the range of 10.4 to 13.2 kg.
The dosing was done in four sequential one day intervals with a minimum two day rest period in between each interval. Blood was drawn immediately before the dose was administered. […] The animals were given the placebo or test article, as described above, at approximately the same time each day, immediately prior to being fed. The dog ate its food within 30 minutes of the dose being administered.
Blood samples were collected pre-dose and at 0.5, 1, 2, 4, 5, 6, 8 and 24 hours post dosing. At each time point, a minimum of 3 mL whole blood (or minimum volume determined by assay requirement) were collected by venipuncture of the jugular vein into non-heparinized Vacutainer tubes. The blood was centrifuged to obtain serum, which was kept on ice until placed into an appropriately sized vial, and frozen at −70° C. The samples remained frozen until delivered on dry ice to the lab for analysis. The lab used radioimmunoassay to analyse for testosterone.
Determining the sustained release properties of the samples in Example 1 by evaluating the amount of time the blood serum levels fell between about 300 and 1100 ng/dl, the sustained release times for Example 1 are given in Table 3. It is desirable to have release properties that are fairly constant with time. It is undesirable to have sharp peaks or drops in serum concentration of the drug.

C[C@]12CC[C@H]3[C@@H](CCC4=CC(=O)CC[C@@]43C)[C@@H]1CC[C@@H]2O [Testosterone, testosterone]
Average Serum Testosterone (dose 25 mg): 0 ng/dL | Sustained release time, Lipid Suspension Time (dose 25 mg): 1 h | Average Serum Testosterone (dose 50 mg): 1 ng/dL | Sustained release time, Lipid Suspension Time (dose 50 mg): 0 h | Average Serum Testosterone (dose 100 mg): 0 ng/dL | Sustained release time, Lipid Suspension Time (dose 100 mg): 7 h | Average Serum Testosterone (dose 250 mg): 26 ng/dL | Sustained release time, Lipid Suspension Time (dose 250 mg): 7 h | concentration at 0.5 h (dose 25 mg): 2.86 ng/mL | concentration at 1 h (dose 25 mg): 3.9 ng/mL | concentration at 2 h (dose 25 mg): 4.25 ng/mL | concentration at 4 h (dose 25 mg): 1.18 ng/mL | concentration at 5 h (dose 25 mg): 0.35 ng/mL | concentration at 6 h (dose 25 mg): 0.53 ng/mL | concentration at 8 h (dose 25 mg): 0.23 ng/mL | concentration at 24 h (dose 25 mg): 0.01 ng/mL | concentration at 0.5 h (dose 50 mg): 1.54 ng/mL | concentration at 1 h (dose 50 mg): 2.86 ng/mL | concentration at 2 h (dose 50 mg): 3.76 ng/mL | concentration at 4 h (dose 50 mg): 2.88 ng/mL | concentration at 5 h (dose 50 mg): 2.15 ng/mL | concentration at 6 h (dose 50 mg): 1.07 ng/mL | concentration at 8 h (dose 50 mg): 0.54 ng/mL | concentration at 24 h (dose 50 mg): 0.07 ng/mL | concentration at 0.5 h (dose 100 mg): 2.7 ng/mL | concentration at 1 h (dose 100 mg): 3.09 ng/mL | concentration at 2 h (dose 100 mg): 4.5 ng/mL | concentration at 4 h (dose 100 mg): 5.22 ng/mL | concentration at 5 h (dose 100 mg): 6.18 ng/mL | concentration at 6 h (dose 100 mg): 3.57 ng/mL | concentration at 8 h (dose 100 mg): 4.22 ng/mL | concentration at 24 h (dose 100 mg): 0.02 ng/mL | concentration at 0.5 h (dose 250 mg): 2.64 ng/mL | concentration at 1 h (dose 250 mg): 5.55 ng/mL | concentration at 2 h (dose 250 mg): 8.35 ng/mL | concentration at 4 h (dose 250 mg): 10.3 ng/mL | concentration at 5 h (dose 250 mg): 8.29 ng/mL | concentration at 6 h (dose 250 mg): 9.8 ng/mL | concentration at 8 h (dose 250 mg): 7.57 ng/mL | concentration at 24 h (dose 250 mg): 0.08 ng/mL
